Biological target: T1, HCV NS3/4A protease complex, J4L6S strain (Hepatitis C virus genotype 1b, UniProt O92972, C1454S/C1711G)
T1 construct: recombinant HCV NS3/4A protease complex (amino acids 1027 to 1711); inferred from pET21b vector and Ni-NTA purification; made in house; host or cells: Escherichia coli BL21 (DE3), pET21b
Test: Recombinant HCV NS3/4A protease complex FRET peptide assay (J4L6S strain)
Type: biochemical, HCV genotype 1b
Source text: Recombinant HCV NS3/4A Protease Complex FRET Peptide Assay
The purpose of this in vitro assay was to measure the inhibition of HCV NS3 protease complexes, derived from the BMS, H77C or J416S strains, as described below, by compounds of the present invention. This assay provides an indication of how effective compounds of the present invention would be in inhibiting HCV proteolytic activity.
Serum from an HCV-infected patient was obtained from Dr. T. Wright, San Francisco Hospital. An engineered full-length cDNA (compliment deoxyribonucleic acid) template of the HCV genome (BMS strain) was constructed from DNA fragments obtained by reverse transcription-PCR(RT-PCR) of serum RNA (ribonucleic acid) and using primers selected on the basis of homology between other genotype 1a strains. From the determination of the entire genome sequence, a genotype 1a was assigned to the HCV isolate according to the classification of Simmonds et al. (See P Simmonds, Kans. Rose, S Graham, S W Chan, F McOmish, B C Dow, E A Follett, P L Yap and H Marsden, J. Clin. Microbiol., 31(6), 1493-1503 (1993)). […]

T1 sequence (O92972 1027-1711 C1454S/C1711G, one chain of several): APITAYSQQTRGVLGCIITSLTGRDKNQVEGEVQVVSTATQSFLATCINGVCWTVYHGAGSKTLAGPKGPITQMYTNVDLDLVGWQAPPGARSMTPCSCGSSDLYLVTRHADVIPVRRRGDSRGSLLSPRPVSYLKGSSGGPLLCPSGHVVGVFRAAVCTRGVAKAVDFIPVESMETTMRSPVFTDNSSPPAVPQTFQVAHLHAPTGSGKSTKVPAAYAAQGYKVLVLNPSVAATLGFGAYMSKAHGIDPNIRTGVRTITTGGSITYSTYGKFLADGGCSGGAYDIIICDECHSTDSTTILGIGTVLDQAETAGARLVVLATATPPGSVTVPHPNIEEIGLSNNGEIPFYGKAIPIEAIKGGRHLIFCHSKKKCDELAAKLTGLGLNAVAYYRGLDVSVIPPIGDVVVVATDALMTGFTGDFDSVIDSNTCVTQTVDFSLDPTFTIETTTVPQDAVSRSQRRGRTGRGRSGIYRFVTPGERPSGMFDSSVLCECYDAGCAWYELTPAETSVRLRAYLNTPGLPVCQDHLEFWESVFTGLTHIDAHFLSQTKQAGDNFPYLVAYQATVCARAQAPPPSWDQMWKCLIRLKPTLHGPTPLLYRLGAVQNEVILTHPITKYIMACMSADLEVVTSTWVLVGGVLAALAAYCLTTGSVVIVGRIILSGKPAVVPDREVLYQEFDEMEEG

Molecule `C=C[C@@H]1C[C@]1(NC(=O)[C@@H]1C[C@@H](Oc2nc(C3CC3)cc3ccccc23)CN1C(=O)[C@@H](NC(=O)OC(C)(C)C)C(C)(C)C)C(=O)NS(=O)(=O)C1CC1` [Compound 34] has an IC50 of 2.9 nM.
